Test results as given in ChEMBL document CHEMBL5150056, “Synthesis and antibiofilm evaluation of N-acyl-2-aminopyrimidine derivatives against Acinetobacter baumannii” (Bioorg Med Chem, 2022).
Values after ≈ are worked out from the molar mass of the structure shown. Blank lines part the entries; values can stand above or below the compound they belong to. Active and inactive are the calls of the source. The calls are words filed in the database; no cut-off is given here.

Assays:
[1] = tested on: Acinetobacter baumannii; test: Antibacterial activity against Acinetobacter baumannii S1 assessed as planktonic growth inhibition incubated for 18 to 24 hrs by CLSI protocol based assay; format: functional; conditions: time 18-24 hrs
[2] = tested on: Acinetobacter baumannii; test: Antibiofilm activity against Acinetobacter baumannii S1 assessed as inhibition rate of biofilm formation at 100 uM incubated for 18 to 24 hrs by crystal violet staining based assay (reference value: 28.8 +/- 8.21%); format: functional; set-up: scale not given: the % may be the effect or the level left; conditions: time 18-24 hrs
[3] = tested on: Acinetobacter baumannii; test: Synergistic antibacterial activity against Acinetobacter baumannii assessed as planktonic growth inhibition incubated for 18 to 24 hrs in the presence of gentamycin sulphate by CLSI protocol based checkerboard assay; format: functional; conditions: time 18-24 hrs
[4] = tested on: Acinetobacter baumannii; test: Antibiofilm activity against Acinetobacter baumannii 1925052 assessed as inhibition of biofilm formation incubated for 18 to 24 hrs by crystal violet staining based assay; format: functional, organism-based
[5] = tested on: 3T3-L1; test: Cytotoxicity against mouse 3T3-L1 cells assessed as reduction in cell viability at 25 uM incubated for 24 hrs by MTT assay relative to control; format: toxicity, cell-based; conditions: 3t3-l1, 24 h
[6] = tested on: Escherichia coli; test: Antibiofilm activity against Escherichia coli Dh5alpha assessed as inhibition of biofilm formation incubated for 18 to 24 hrs by crystal violet staining based assay; format: functional, organism-based; conditions: DH5-alpha
[7] = tested on: Acinetobacter baumannii; test: Antibiofilm activity against Acinetobacter baumannii assessed as reduction in bacterial motility in agar plates by quorum sensing process at 100 uM incubated for 24 hrs; format: functional, organism-based
[8] = tested on: Acinetobacter baumannii; test: Synergistic antibacterial activity against Acinetobacter baumannii assessed as fractional inhibitory concentration index incubated for 18 to 24 hrs in the presence of chloramphenicol by CLSI protocol based checkerboard assay; format: functional; conditions: time 18-24 hrs
[9] = tested on: Acinetobacter baumannii; test: Antibiofilm activity against Acinetobacter baumannii 1780608 assessed as inhibition of biofilm formation incubated for 18 to 24 hrs by crystal violet staining based assay; format: functional, organism-based
[10] = tested on: Acinetobacter baumannii; test: Synergistic antibacterial activity against Acinetobacter baumannii assessed as planktonic growth inhibition incubated for 18 to 24 hrs in the presence of chloramphenicol by CLSI protocol based checkerboard assay; format: functional; conditions: time 18-24 hrs
[11] = tested on: 3T3-L1; test: Cytotoxicity against mouse 3T3-L1 cells assessed as reduction in cell viability at 100 uM incubated for 24 hrs by MTT assay relative to control; format: toxicity, cell-based; conditions: 3t3-l1, 24 h
[12] = tested on: Acinetobacter baumannii; test: Antibiofilm activity against Acinetobacter baumannii 1913061 assessed as inhibition of biofilm formation incubated for 18 to 24 hrs by crystal violet staining based assay; format: functional, organism-based
[13] = tested on: Acinetobacter baumannii; test: Antibacterial activity against Acinetobacter baumannii assessed as planktonic growth inhibition incubated for 18 to 24 hrs by CLSI protocol based assay; format: functional; conditions: time 18-24 hrs
[14] = tested on: Acinetobacter baumannii; test: Synergistic antibacterial activity against Acinetobacter baumannii assessed as planktonic growth inhibition incubated for 18 to 24 hrs in the presence of oxacillin by CLSI protocol based checkerboard assay; format: functional; conditions: time 18-24 hrs
[15] = tested on: Acinetobacter baumannii; test: Synergistic antibacterial activity against Acinetobacter baumannii assessed as fractional inhibitory concentration index incubated for 18 to 24 hrs in the presence of oxacillin by CLSI protocol based checkerboard assay; format: functional; conditions: time 18-24 hrs
[16] = Cytotoxicity against mouse 3T3-L1 cells assessed as inhibition of cell growth incubated for 24 hrs by MTT assay; format: toxicity, cell-based
[17] = tested on: Acinetobacter baumannii; test: Antibiofilm activity against Acinetobacter baumannii assessed as reduction in biofilm thickness at 100 uM incubated for 24 hrs by Alexa fluor 488 staining based confocal laser microscopic analysis (reference value: 25.91); format: functional
[18] = tested on: Acinetobacter baumannii; test: Synergistic antibacterial activity against Acinetobacter baumannii assessed as fractional inhibitory concentration index incubated for 18 to 24 hrs in the presence of gentamycin sulphate by CLSI protocol based checkerboard assay; format: functional; conditions: time 18-24 hrs
[19] = tested on: Acinetobacter baumannii; test: Antibiofilm activity against Acinetobacter baumannii S1 assessed as inhibition of biofilm formation incubated for 18 to 24 hrs by crystal violet staining based assay; format: functional, organism-based
[20] = tested on: Acinetobacter baumannii; test: Antibiofilm activity against Acinetobacter baumannii 1778027 assessed as inhibition of biofilm formation incubated for 18 to 24 hrs by crystal violet staining based assay; format: functional, organism-based
[21] = tested on: Acinetobacter baumannii; test: Antibiofilm activity against Acinetobacter baumannii assessed as reduction in biofilm brightness at 100 uM incubated for 24 hrs by Alexa fluor 488 staining based confocal laser microscopic analysis; format: functional, organism-based
[22] = tested on: 3T3-L1; test: Cytotoxicity against mouse 3T3-L1 cells assessed as reduction in cell viability at 12.5 uM incubated for 24 hrs by MTT assay relative to control; format: toxicity, cell-based; conditions: 3t3-l1, 24 h
[23] = tested on: Staphylococcus epidermidis; test: Antibiofilm activity against Staphylococcus epidermis ATCC 102555 assessed as inhibition of biofilm formation incubated for 18 to 24 hrs by crystal violet staining based assay; format: functional, organism-based
[24] = tested on: 3T3-L1; test: Cytotoxicity against mouse 3T3-L1 cells assessed as reduction in cell viability at 200 uM incubated for 24 hrs by MTT assay relative to control; format: toxicity, cell-based; conditions: 3t3-l1, 24 h
[25] = tested on: 3T3-L1; test: Cytotoxicity against mouse 3T3-L1 cells assessed as reduction in cell viability at 50 uM incubated for 24 hrs by MTT assay relative to control; format: toxicity, cell-based; conditions: 3t3-l1, 24 h
[26] = tested on: Staphylococcus aureus; test: Antibiofilm activity against Staphylococcus aureus ATCC […] assessed as inhibition of biofilm formation incubated for 18 to 24 hrs by crystal violet staining based assay; format: functional, organism-based
[27] = tested on: Pseudomonas aeruginosa; test: Antibiofilm activity against Pseudomonas aeruginosa ATCC 27853 assessed as inhibition of biofilm formation incubated for 18 to 24 hrs by crystal violet staining based assay; format: functional, organism-based
[28] = tested on: Acinetobacter baumannii; test: Antibiofilm activity against Acinetobacter baumannii ATCC19606 assessed as inhibition of biofilm formation incubated for 18 to 24 hrs by crystal violet staining based assay; format: functional, organism-based
[29] = tested on: Acinetobacter baumannii; test: Antibiofilm activity against Acinetobacter baumannii assessed as reduction in extracellular polysaccharides at 100 uM incubated for 1 hrs by ELISA analysis; format: functional; set-up: scale not given: the % may be the effect or the level left
[30] = tested on: Staphylococcus aureus; test: Antibiofilm activity against Staphylococcus aureus ATCC […] assessed as inhibition rate of biofilm formation at 200 uM incubated for 18 to 24 hrs by crystal violet staining based assay relative to control; format: functional; conditions: time 18-24 hrs
[31] = tested on: Pseudomonas aeruginosa; test: Antibiofilm activity against Pseudomonas aeruginosa ATCC 27853 assessed as inhibition rate of biofilm formation at 200 uM incubated for 18 to 24 hrs by crystal violet staining based assay relative to control; format: functional; conditions: time 18-24 hrs
[32] = tested on: Escherichia coli; test: Antibiofilm activity against Escherichia coli Dh5alpha assessed as inhibition rate of biofilm formation at 200 uM incubated for 18 to 24 hrs by crystal violet staining based assay relative to control; format: functional; conditions: DH5-alpha, time 18-24 hrs
[33] = tested on: Acinetobacter baumannii; test: Antibiofilm activity against Acinetobacter baumannii 1778027 assessed as inhibition rate of biofilm formation at 200 uM incubated for 18 to 24 hrs by crystal violet staining based assay relative to control; format: functional; conditions: time 18-24 hrs
[34] = tested on: Staphylococcus epidermidis; test: Antibiofilm activity against Staphylococcus epidermis ATCC 102555 assessed as inhibition rate of biofilm formation at 200 uM incubated for 18 to 24 hrs by crystal violet staining based assay relative to control; format: functional; conditions: time 18-24 hrs

- MIC [1]: > 256 µg/mL
Structure (SMILES): CCCCCCCCCCCC(=O)Nc1ncccn1
- Activity [2]: 19.1%

- MIC [1]: > 256 µg/mL
Structure (SMILES): O=C(/C=C/c1ccccc1)Nc1ncccn1
- Activity [2]: 13.6%

- MIC [3]: 0.125 µg/mL
- IC50 [4]: 3.98 µM
- MIC [1]: > 256 µg/mL
- IC50 [6]: 3.68 µM
- IC50 [9]: 5.92 µM
- MIC [10]: 64 µg/mL
- IC50 [12]: 1.89 µM
- MIC [13]: 256 µg/mL (≈ 604 µM)
- MIC [14]: 128 µg/mL
- IC50 [19]: 16.5 µM
- IC50 [20]: 47.5 µM
- IC50 [23]: 6.76 µM
- IC50 [26]: 11.2 µM
- IC50 [27]: 9.98 µM
- IC50 [28]: 4.43 µM
Structure (SMILES): CCCCCCCCCCCCCC(=O)Nc1nc(Cl)cc(N2CCNCC2)n1
- Activity [5]: 99.3%
- Activity [7]: Active
- fractional inhibitory concentration index (FICI) [8]: 0.25
- Activity [11]: 21.11%
- fractional inhibitory concentration index (FICI) [15]: 0.25
- IC50 at 24 h [16]: 73.6 µM
- Activity [17]: 14.68
- fractional inhibitory concentration index (FICI) [18]: 0.13
- Activity [21]: Active
- Activity [22]: 99.3%
- Activity [24]: 20.84%
- Activity [25]: 80.61%
- Activity [29]: 72%
- Activity [2]: 70.2%

- MIC [1]: > 256 µg/mL
Structure (SMILES): CCCCCCCCCC(=O)Nc1ncccn1
- Activity [2]: 33.2%

Structure (SMILES): CCCCCCCCCCCCCC(=O)Nc1nc(N)cc(F)n1
- Activity [2]: 53.1%

- MIC [1]: > 256 µg/mL
Structure (SMILES): CCCCCCCCCCCCCC(=O)Nc1nccc(C)n1
- Activity [2]: 26.9%

- IC50 [4]: 195 µM
- IC50 [9]: 120 µM
- IC50 [12]: 22.8 µM
- IC50 [19]: 143 µM
- IC50 [28]: 85.3 µM
Structure (SMILES): O=C(Cc1cccc(Br)c1)N[C@H]1CCOC1=O
- inhibition at 200 µM [30]: < 50%
- inhibition at 200 µM [31]: < 50%
- inhibition at 200 µM [32]: < 50%
- inhibition at 200 µM [33]: < 50%
- inhibition at 200 µM [34]: < 50%

- MIC [1]: > 256 µg/mL
Structure (SMILES): CCCCCCCCCCCCCC(=O)Nc1nc(OC)cc(OC)n1
- Activity [2]: 59.3%

- MIC [1]: > 256 µg/mL
Structure (SMILES): CCCCCCCCCCCCCC(=O)Nc1nccc(N)n1
- Activity [2]: 35.8%

- MIC [1]: > 256 µg/mL
Structure (SMILES): O=C(Nc1ncccn1)c1cccc2ccccc12
- Activity [2]: 9.4%

- MIC [3]: 0.125 µg/mL
- IC50 [4]: 68.1 µM
- MIC [1]: > 256 µg/mL
- IC50 [9]: 43.3 µM
- MIC [10]: 64 µg/mL
- IC50 [12]: 16.5 µM
- MIC [13]: 256 µg/mL (≈ 721 µM)
- MIC [14]: 128 µg/mL
- IC50 [19]: 39.3 µM
- IC50 [20]: 11.4 µM
- IC50 [28]: 6.34 µM
Structure (SMILES): CCCCCCCCCCCCCC(=O)Nc1nc(N)cc(Cl)n1
- inhibition at 200 µM [30]: < 50%
- Activity [5]: 100.89%
- inhibition at 200 µM [31]: < 50%
- Activity [7]: Active
- fractional inhibitory concentration index (FICI) [8]: 0.25
- inhibition at 200 µM [32]: < 50%
- Activity [11]: 100.68%
- fractional inhibitory concentration index (FICI) [15]: 0.25
- Activity [17]: 16.04
- fractional inhibitory concentration index (FICI) [18]: 0.25
- Activity [22]: 99.88%
- Activity [24]: 101.81%
- Activity [25]: 100.81%
- Activity [29]: 65%
- Activity [2]: 69.9%
- inhibition at 200 µM [34]: < 50%

- MIC [1]: > 256 µg/mL
Structure (SMILES): CC(C)(C)C(=O)Nc1ncccn1
- Activity [2]: 12.3%

- MIC [1]: > 256 µg/mL
Structure (SMILES): CCCCCCCCCCCCCC(=O)Nc1ncc(Br)cn1
- Activity [2]: 31.1%

- MIC [1]: > 256 µg/mL
Structure (SMILES): O=C(Nc1ncccn1)c1ccccc1
- Activity [2]: 28%

- MIC [1]: > 256 µg/mL
Structure (SMILES): CCOC(=O)CCC(=O)Nc1ncccn1
- Activity [2]: 19.1%

- MIC [1]: > 256 µg/mL
Structure (SMILES): O=C(Cc1cccs1)Nc1ncccn1
- Activity [2]: 5.5%

- MIC [1]: > 256 µg/mL
Structure (SMILES): CCCCCCCCCCCCCC(=O)Nc1nc(C)cc(Cl)n1
- Activity [2]: 46.6%

- MIC [1]: > 256 µg/mL
Structure (SMILES): O=C(CCc1ccccc1)Nc1ncccn1
- Activity [2]: -0.2%

- MIC [1]: > 256 µg/mL
Structure (SMILES): CCCCCCCCCCCCCC(=O)Nc1ncccn1
- Activity [2]: 36.3%

- MIC [1]: > 256 µg/mL
Structure (SMILES): CCCCCCCCCCCCCC(=O)Nc1nc(Cl)cc(N2CCOCC2)n1
- Activity [2]: 28.5%

- MIC [1]: > 256 µg/mL
Structure (SMILES): CCCCCCCCCCCCCC(=O)Nc1nc(Cl)c(Cl)c(Cl)n1
- Activity [2]: 32%

- MIC [1]: > 256 µg/mL
Structure (SMILES): CCCCCCCCCCCCCC(=O)Nc1ncc(Cl)c(Cl)n1
- Activity [2]: 30.9%

- MIC [1]: > 256 µg/mL
Structure (SMILES): O=C(Nc1ncccn1)OCc1ccccc1
- Activity [2]: 24.5%
